In BindingDB's records for patent US20240101531 (Xenon Pharmaceuticals, 2024):

Biological target: Potassium voltage-gated channel subfamily KQT member 2/3 (Homo sapiens, UniProt O43525+O43526)
Experiment: In Vitro Assay
Text: This potassium flux assay employs the cell-permeable, potassium-sensitive dye, IPG-2 AM, to quantify potassium ion flux through potassium channels.In general, TREX HEK 293 or HEK 293 cells were stably transfected with either an inducible or non-inducible expression vector containing the full-length cDNA coding for the desired human KV7.2/KV7.3 or in combination with another full-length cDNA for a second desired human KV7 potassium channel. Potassium channel-expressing cell lines were induced with tetracycline (1 g/mL), if required, and plated on 384-well poly-D-lysine (PDL)-coated plates in culture media (DMEM, containing 10% FBS and 1% L-glutamine). After overnight incubation, culture media was removed and cells were loaded with 5 M IPG-2 AM dye for 1 hour in Assay buffer (140 mM NaCl, 20 mM RbCl, 2 mM CaCl2, 1 mM MgCl2, 10 mM HEPES (4-(2-hydroxyethyl)-1-piperazineethanesulfonic acid buffer), 10 mM glucose, adjusted with Tris to pH 7.4). Excess dye was removed, and cells incubated at room temperature for 20 minutes with or without test compound. […]

Chain of Potassium voltage-gated channel subfamily KQT member 2/3 (O43526 whole entry): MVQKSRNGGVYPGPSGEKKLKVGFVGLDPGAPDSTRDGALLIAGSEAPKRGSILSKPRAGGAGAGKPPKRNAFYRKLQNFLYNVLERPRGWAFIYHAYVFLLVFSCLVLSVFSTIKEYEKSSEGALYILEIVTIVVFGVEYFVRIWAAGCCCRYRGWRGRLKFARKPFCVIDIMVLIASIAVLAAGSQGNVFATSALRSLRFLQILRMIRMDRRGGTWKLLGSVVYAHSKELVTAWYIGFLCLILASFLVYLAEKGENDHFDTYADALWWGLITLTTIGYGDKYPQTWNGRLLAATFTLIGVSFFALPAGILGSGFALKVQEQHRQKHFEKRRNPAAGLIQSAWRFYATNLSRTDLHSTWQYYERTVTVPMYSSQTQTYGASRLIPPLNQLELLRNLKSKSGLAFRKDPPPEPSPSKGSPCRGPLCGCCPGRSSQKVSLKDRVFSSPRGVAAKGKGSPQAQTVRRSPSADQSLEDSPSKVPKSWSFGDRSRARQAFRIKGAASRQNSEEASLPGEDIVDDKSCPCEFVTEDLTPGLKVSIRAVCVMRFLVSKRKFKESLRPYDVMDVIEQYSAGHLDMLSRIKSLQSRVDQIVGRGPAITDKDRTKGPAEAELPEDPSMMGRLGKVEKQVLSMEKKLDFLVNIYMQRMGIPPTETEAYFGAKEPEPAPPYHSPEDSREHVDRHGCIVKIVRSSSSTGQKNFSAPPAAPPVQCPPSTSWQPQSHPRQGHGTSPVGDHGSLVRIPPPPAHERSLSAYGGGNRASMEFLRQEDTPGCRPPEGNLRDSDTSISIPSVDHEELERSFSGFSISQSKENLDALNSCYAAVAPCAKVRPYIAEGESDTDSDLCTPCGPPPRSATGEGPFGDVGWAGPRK
Chain of Potassium voltage-gated channel subfamily KQT member 2/3 (O43525 whole entry): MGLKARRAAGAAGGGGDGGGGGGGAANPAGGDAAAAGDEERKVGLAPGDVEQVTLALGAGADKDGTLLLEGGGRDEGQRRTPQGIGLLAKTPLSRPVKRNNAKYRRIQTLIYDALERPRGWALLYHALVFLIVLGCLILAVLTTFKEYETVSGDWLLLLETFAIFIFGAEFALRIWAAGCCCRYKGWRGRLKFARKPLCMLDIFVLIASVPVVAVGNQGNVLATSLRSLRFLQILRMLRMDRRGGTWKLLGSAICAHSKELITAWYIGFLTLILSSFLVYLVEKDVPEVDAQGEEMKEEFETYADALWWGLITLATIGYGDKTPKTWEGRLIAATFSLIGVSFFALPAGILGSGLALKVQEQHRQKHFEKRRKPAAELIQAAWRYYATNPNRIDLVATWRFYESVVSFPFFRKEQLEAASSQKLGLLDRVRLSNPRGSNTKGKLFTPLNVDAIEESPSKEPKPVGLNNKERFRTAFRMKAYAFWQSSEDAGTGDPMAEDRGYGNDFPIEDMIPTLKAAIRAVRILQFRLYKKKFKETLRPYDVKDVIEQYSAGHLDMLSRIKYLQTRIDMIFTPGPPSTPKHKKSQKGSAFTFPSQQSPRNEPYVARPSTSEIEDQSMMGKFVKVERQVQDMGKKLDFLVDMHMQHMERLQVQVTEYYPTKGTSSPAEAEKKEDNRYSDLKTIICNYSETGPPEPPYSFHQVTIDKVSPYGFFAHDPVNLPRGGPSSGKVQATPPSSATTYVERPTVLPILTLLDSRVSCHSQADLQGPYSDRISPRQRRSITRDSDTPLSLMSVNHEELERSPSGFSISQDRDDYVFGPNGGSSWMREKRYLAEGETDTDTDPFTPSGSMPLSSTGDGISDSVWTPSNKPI

EC50: < 1000 nM
SMILES: CC1(C)CC1(C#N)COc1ccc2c(Nc3ccc(Cl)nc3)nccc2c1 (stereo unspecified) [US20240101531, Example 330]
